Article PMC9404989, “Design and Evaluation of Short Bovine Lactoferrin-Derived Antimicrobial Peptides against Multidrug-Resistant Enterococcus faecium” (Antibiotics, 2022)
In brackets after ≈: the same amount, converted by molar mass. Read-outs that look alike come from different tables or passages of the source. No end group written: not given here.

Experiments:
E. faecium strain C68 [1] = test: microbe, parasite or virus in culture; assay type: cell-based, Enterococcus faecium; conditions: for MIC: Enterococcus faecium, C68
Procedure: (§1) To determine the MICs of peptides, we used the broth microdilution method described by the Clinical and Laboratory Standards Institute. We made serial dilutions of 10× concentration (10 µL) for each peptide in duplicates in 96-well plates (Cat No. 3595, Corning, New York, NY, USA). We added 90 µL of logarithmic-phase bacteria at 5 × 10^5 CFU/mL (in BHI media) to the peptides and then incubated the plates at 37 °C for 18 h. We measured the OD600 absorbance readings using the Spectra Max i3x spectrophotometer (Molecular Devices, San Jose, CA, USA) and determined the MIC as the peptide concentration that inhibits the growth of bacteria.
To investigate the activity of peptides in various salt concentrations, we included physiologically relevant salts in the BHI medium.

E. faecium WC176 = test: organism not typed; assay type: cell-based, Enterococcus faecium; conditions: read-out: MIC WC176
Procedure: as §1

E. faecium D24 = test: microbe, parasite or virus in culture; assay type: cell-based, Enterococcus faecium
Procedure: as §1

E. faecium strain C68 [2] = test: microbe, parasite or virus in culture; assay type: cell-based, Enterococcus faecium
Procedure: as §1

E. faecium D14 = test: microbe, parasite or virus in culture; assay type: cell-based, Enterococcus faecium
Procedure: as §1

E. faecium E007 = test: microbe, parasite or virus in culture; assay type: cell-based, Enterococcus faecium; conditions: Enterococcus faecium
Procedure: as §1

E. faecium D25 = test: microbe, parasite or virus in culture; assay type: cell-based, Enterococcus faecium
Procedure: as §1

E. faecium D29 = test: microbe, parasite or virus in culture; assay type: cell-based, Enterococcus faecium
Procedure: as §1

[3] = system: E. faecium strain C68 on porcine skin; test: Ex vivo porcine skin infection assay; set-up: species or system Enterococcus faecium; conditions: exponential cells
Text: We evaluated the efficacy of designed lactoferrin AMPs in an ex vivo porcine skin model previously described with minor modifications. We first cleaned the shaved porcine skin (Fisher Scientific, Hampton, NH, USA) with 70% ethanol and then water, and glued polyethylene tubing (5 mm) (Nalgene VWR 228-0170, Radnor, PA, USA) to the skin samples with cyanoacrylate glue (Fisher Scientific, Hampton, NH, USA). Using disposable razors, we cut each piece of skin glued to the tube and inserted it into a 12-well tissue culture plate (Falcon, Cat No. 353182). We infected each skin with 1 × 10^6 CFU of exponential or persister E. faecium strain C68 cells in a total volume of 10 µL. Following an incubation of 1 h at 37 °C, we treated the skin with 50 µL with 5L and 6L at concentrations of 10× or 1× MIC. After an additional 4 h of incubation at 37 °C, we washed each tubing well with 250 µL of PBS (pH 7.4) containing 0.05% Triton X-100 to remove bacteria. After serially diluting the bacterial sample, we counted their CFUs.

E. faecalis OG1RF = test: MIC assay, E. faecalis OG1RF; assay type: cell-based; conditions: rifampin and fusidic acid resistant
Procedure: as §1

E. faecalis MMH594 = test: microbe, parasite or virus in culture; assay type: cell-based
Procedure: as §1

E. faecalis V583 = test: microbe, parasite or virus in culture; assay type: cell-based
Procedure: as §1

S. aureus MW2 = test: microbe, parasite or virus in culture; assay type: cell-based, Staphylococcus aureus
Procedure: as §1

[4] = HPLC retention time on C18 reverse-phase column; assay type: physicochemical
Text: Table 1 Physical parameters and the minimal inhibitory concentration (µg/mL) of designed peptides against E. faecium. | column: rT ^f (min)

Compound: CC1(C)S[C@@H]2[C@H](NC(=O)[C@H](N)c3ccccc3)C(=O)N2[C@H]1C(=O)O [Ampicillin, reference compound]
- MIC (E. faecium strain C68 [1]; BHI + 8 µM ZnSO4, read-out: MIC + ZnSO4 (8 µM)): > 32 µg/mL
- MIC (E. faecium strain C68 [1]; BHI + 1 mM MgSO4, read-out: MIC + MgSO4 (1 mM)): > 32 µg/mL
- MIC (E. faecium strain C68 [1]; BHI + 2.5 mM CaCl2, read-out: MIC + CaCl2 (2.5 mM)): > 32 µg/mL
- MIC (E. faecium strain C68 [1]; BHI + 150 mM NaCl, read-out: MIC + NaCl (150 mM)): > 32 µg/mL
- MIC (E. faecium WC176): > 32 µg/mL
- MIC (E. faecium D24; Enterococcus faecium, D24; read-out: MIC D24): > 32 µg/mL
- MIC (E. faecium strain C68 [2]; Enterococcus faecium, C68, 18 h; read-out: MIC EF C68): > 32 µg/mL
- MIC (E. faecium strain C68 [2]; Enterococcus faecium, C68; BHI media only, 37 °C, 18 h; read-out: MIC Media Only): > 32 µg/mL
- MIC (E. faecium D14; Enterococcus faecium, D14; read-out: MIC D14): ≥ 32 µg/mL
- MIC (E. faecium E007; E007, tetracycline-resistant strain, read-out: MIC E007): > 32 µg/mL
- MIC (E. faecium D25; Enterococcus faecium, D25; read-out: MIC D25): > 32 µg/mL
- MIC (E. faecium D29; Enterococcus faecium, D29; read-out: MIC D29): > 32 µg/mL

Compound: CNC(C)C1CCC(N)C(OC2C(N)CC(N)C(OC3OCC(C)(O)C(NC)C3O)C2O)O1 (centres unmarked) [Gentamicin, reference compound]
- bacterial burden, control antibiotic [3]: ineffective in reducing the bacterial burden

Compound: CN[C@H](CC(C)C)C(=O)N[C@H]1C(=O)N[C@@H](CC(N)=O)C(=O)N[C@H]2C(=O)N[C@H]3C(=O)N[C@H](C(=O)N[C@H](C(=O)O)c4cc(O)cc(O)c4-c4cc3ccc4O)[C@H](O)c3ccc(c(Cl)c3)Oc3cc2cc(c3O[C@@H]2O[C@H](CO)[C@@H](O)[C@H](O)[C@H]2O[C@H]2C[C@](C)(N)[C@H](O)[C@H](C)O2)Oc2ccc(cc2Cl)[C@H]1O [Vancomycin, reference compound]
- MIC (E. faecalis OG1RF; Enterococcus faecalis, OG1RF): > 32 µg/mL
- MIC (E. faecium WC176): 16 µg/mL (≈ 11 µM)
- MIC (E. faecium D24; Enterococcus faecium, D24, read-out: MIC D24): 1 µg/mL (≈ 0.69 µM)
- MIC (E. faecium strain C68 [2]; Enterococcus faecium, C68, 18 h, read-out: MIC EF C68): > 32 µg/mL
- MIC (E. faecium D14; Enterococcus faecium, D14, read-out: MIC D14): 2 µg/mL (≈ 1.38 µM)
- MIC (E. faecium E007; E007, read-out: MIC E007): 1 µg/mL (≈ 0.69 µM)
- MIC (E. faecium D25; Enterococcus faecium, D25, read-out: MIC D25): 1 µg/mL (≈ 0.69 µM)
- MIC (E. faecium D29; Enterococcus faecium, D29, read-out: MIC D29): 1 µg/mL (≈ 0.69 µM)
- MIC (E. faecalis MMH594; Enterococcus faecalis, MMH594, read-out: MIC E. faecalis MMH594): > 32 µg/mL
- MIC (E. faecalis V583; Enterococcus faecalis, V583, read-out: MIC E. faecalis V583): > 32 µg/mL
- MIC (S. aureus MW2; Staphylococcus aureus, MRSA, read-out: MIC S. aureus MW2): 1 µg/mL (≈ 0.69 µM)

Compound: LRWLWRRRWLWR-NH2 [Peptide 3L]
- MIC E. faecalis OG1RF (E. faecalis OG1RF): > 32 µg/mL
- rT (HPLC retention time) [4]: 16.145 min
- MIC + CaCl2 (2.5 mM) (E. faecium strain C68 [1]; strain C68, 18 h): >32 µg/mL
- MIC + MgSO4 (1 mM) (E. faecium strain C68 [1]; strain C68, 18 h): 8 µg/mL
- MIC + NaCl (150 mM) (E. faecium strain C68 [1]; strain C68, 18 h): 16 µg/mL
- MIC + ZnSO4 (8 µM) (E. faecium strain C68 [1]; strain C68, 18 h): 4 µg/mL
- MIC EF C68 (E. faecium strain C68 [2]; strain C68, 18 h): 16 µg/mL
- MIC Media Only (E. faecium strain C68 [2]; strain C68, 18 h): 16 µg/mL
- MIC E. faecalis MMH594 (E. faecalis MMH594; MMH594, 18 h): > 32 µg/mL
- MIC E. faecalis V583 (E. faecalis V583; V583, 18 h): > 32 µg/mL
- MIC S. aureus MW2 (S. aureus MW2; MW2, 18 h): > 32 µg/mL
